Data reported in patent US7998989B2, “2-Imino-1,3-thiazoline-based compounds and T-type calcium channel inhibitors containing the same” (Korea Institute of Science and Technology, priority 2007, dated 2011).
Where two headings read alike, the source gives them in different places.

Experiments:
[1] = target: T1, α1G T-type calcium channel (Homo sapiens, UniProt O43497); assay: Assay for % inhibiting activity against T-type calcium channel using FDSS6000 (fluo-3 calcium imaging, KCl activation); type: cell-based
T1 construct: host or cells: HEK293
How it was run: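 HEK293 cells stably expressing α1G and Kir2.1 loaded with 5 μM fluo-3/AM, then in HEPES buffer (pH 7.4) with 10 mM CaCl2. Compound applied 75 s before 75 mM KCl; intracellular Ca2+ read as […] area, % inhibition relative to untreated control.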

[2] = HEK293, 10 μM, HEK293 cells stably expressing α1G T-type calcium channel and Kir2.1, compounds of the examples, read-out: FDSS (% inhibition)/10uM
[3] = 10 μM, FDSS (% inhibition), comparative compounds where R6 is a phenyl group, read-out: FDSS

T1 sequence (O43497 whole entry): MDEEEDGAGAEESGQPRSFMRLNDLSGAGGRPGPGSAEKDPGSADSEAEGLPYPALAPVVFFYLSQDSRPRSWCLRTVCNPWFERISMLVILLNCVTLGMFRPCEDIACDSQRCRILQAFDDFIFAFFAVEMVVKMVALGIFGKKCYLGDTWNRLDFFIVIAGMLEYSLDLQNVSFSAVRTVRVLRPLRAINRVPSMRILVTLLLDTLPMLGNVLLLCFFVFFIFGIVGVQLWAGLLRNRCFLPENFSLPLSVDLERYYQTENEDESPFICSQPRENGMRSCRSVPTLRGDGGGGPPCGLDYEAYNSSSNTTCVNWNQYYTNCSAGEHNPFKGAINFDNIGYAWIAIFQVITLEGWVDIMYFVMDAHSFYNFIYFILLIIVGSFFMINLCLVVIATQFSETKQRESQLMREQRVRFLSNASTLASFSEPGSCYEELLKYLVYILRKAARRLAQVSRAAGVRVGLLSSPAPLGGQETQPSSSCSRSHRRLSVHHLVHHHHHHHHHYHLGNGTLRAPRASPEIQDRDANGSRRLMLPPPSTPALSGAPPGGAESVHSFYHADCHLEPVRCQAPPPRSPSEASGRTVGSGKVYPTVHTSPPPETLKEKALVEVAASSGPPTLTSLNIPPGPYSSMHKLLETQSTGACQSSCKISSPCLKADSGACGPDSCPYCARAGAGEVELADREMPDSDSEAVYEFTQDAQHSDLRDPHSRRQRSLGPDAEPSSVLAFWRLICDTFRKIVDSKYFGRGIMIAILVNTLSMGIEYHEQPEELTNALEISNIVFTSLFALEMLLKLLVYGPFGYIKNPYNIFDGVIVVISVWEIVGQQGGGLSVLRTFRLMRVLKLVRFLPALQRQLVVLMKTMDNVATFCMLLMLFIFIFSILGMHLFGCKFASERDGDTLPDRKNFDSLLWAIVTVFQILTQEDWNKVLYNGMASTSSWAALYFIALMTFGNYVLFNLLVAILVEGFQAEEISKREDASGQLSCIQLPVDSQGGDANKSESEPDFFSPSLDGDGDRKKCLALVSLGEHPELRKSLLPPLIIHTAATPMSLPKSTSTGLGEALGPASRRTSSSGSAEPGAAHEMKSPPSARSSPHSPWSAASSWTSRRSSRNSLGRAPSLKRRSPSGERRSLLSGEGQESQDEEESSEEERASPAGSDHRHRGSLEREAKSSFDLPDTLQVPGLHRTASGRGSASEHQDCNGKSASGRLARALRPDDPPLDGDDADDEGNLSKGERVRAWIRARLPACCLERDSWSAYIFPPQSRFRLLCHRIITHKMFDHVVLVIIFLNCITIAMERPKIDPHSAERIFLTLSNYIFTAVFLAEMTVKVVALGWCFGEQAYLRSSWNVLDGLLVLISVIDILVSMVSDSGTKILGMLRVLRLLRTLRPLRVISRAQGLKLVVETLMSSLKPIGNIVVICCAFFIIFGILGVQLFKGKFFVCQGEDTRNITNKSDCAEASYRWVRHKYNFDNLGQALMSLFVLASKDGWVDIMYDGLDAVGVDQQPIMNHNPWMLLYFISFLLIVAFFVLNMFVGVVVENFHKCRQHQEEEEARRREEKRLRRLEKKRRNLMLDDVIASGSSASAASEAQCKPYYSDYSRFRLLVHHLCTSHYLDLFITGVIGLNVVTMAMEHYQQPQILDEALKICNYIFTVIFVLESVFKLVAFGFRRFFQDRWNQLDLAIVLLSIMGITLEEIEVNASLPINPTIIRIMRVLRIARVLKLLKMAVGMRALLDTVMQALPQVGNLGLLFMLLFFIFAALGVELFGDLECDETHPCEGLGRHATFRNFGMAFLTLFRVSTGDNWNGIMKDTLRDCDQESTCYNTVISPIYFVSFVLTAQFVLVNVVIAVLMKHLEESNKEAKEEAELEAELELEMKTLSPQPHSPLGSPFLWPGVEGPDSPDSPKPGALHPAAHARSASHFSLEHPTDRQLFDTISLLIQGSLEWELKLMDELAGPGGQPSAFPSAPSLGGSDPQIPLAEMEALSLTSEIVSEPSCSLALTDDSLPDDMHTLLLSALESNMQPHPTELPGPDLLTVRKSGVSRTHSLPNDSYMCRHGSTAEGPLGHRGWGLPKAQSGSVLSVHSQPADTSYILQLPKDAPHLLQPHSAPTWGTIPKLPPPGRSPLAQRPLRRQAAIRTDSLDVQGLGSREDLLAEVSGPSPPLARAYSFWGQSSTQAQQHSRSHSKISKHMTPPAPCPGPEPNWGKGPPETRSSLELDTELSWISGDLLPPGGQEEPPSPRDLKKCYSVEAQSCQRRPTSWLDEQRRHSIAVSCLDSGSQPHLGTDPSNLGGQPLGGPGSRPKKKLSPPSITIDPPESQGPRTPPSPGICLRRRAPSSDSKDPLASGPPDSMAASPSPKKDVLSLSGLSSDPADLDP

| SMILES | melting point | inhibition at 10 µM [1, 2] | inhibition at 10 µM [1, 3] |
| --- | --- | --- | --- |
| CCCN1C(=NC2CCCCC2)SCC1CC(=O)Nc1ccc(C)c(Cl)c1.Cl (stereo not shown) [KHG24405, (2-cyclohexylimino-3-(n-propyl)-1,3-thiazolidine-4-yl)-N-(3-chloro-4-methylphenyl)-acetamide hydrochloride] | 204.9 °C | 68.4% |  |
| Cl.O=C(CC1CSC(=NC2CCCCC2)N1C1CC1)Nc1ccc(Oc2ccccc2)cc1 (stereo not shown) [KHG24315, (2-cyclohexylimino-3-cyclopropyl-1,3-thiazolidine-4-yl)-N-(4-phenoxyphenyl)-acetamide hydrochloride] | 195 °C | 60.8% |  |
| CCN1C(=NC2CCCCC2)SCC1CC(=O)NCc1ccc(C)cc1.Cl (stereo not shown) [KHG24292, (2-cyclohexylimino-3-ethyl-1,3-thiazolidine-4-yl)-N-(4-methylbenzyl)-acetamide hydrochloride] | 172.6 °C | 43.9% |  |
| CCCN1C(=NC2CCCCC2)SCC1CC(=O)Nc1ccc(Cl)cc1.Cl (stereo not shown) [KHG24287, [2-cyclohexylimino-3-(n-propyl)-1,3-thiazolidine-4-yl]-N-(4-chlorophenyl)-acetamide hydrochloride] | 206.8 °C | 58.5% |  |
| CCCCN1C(=NC2CCCCC2)SCC1CC(=O)Nc1ccc(Br)cc1.Cl (stereo not shown) [KHG24263, [2-cyclohexylimino-3-(n-butyl)-1,3-thiazolidine-4-yl]-N-(4-bromophenyl)-acetamide hydrochloride] | 215.2 °C | 52.1% |  |
| CN1C(=Nc2ccc(C#N)cc2)SCC1CC(=O)Nc1ccc(Cl)cc1F.Cl (stereo not shown) [KHG23067, [2-(4-cyanophenylimino)-3-methyl-1,3-thiazolidine-4-yl]-N-(4-chloro-2-fluorophenyl)-acetamide hydrochloride] | 136 to 137 °C |  | -2.73% |
| COc1ccc(NC(=O)CC2CSC(=NC3CCCCC3)N2C)cc1Cl.Cl (stereo not shown) [KHG24070, (2-cyclohexylimino-3-methyl-1,3-thiazolidine-4-yl)-N-(3-chloro-4-methoxyphenyl)-acetamide hydrochloride] | 233.5 to 235 °C | 53% |  |
| CN1C(=NC2CCCCCC2)SCC1C(=O)NCc1cccc(Cl)c1.Cl (stereo not shown) [KHG24336, (2-cycloheptylimino-3-methyl-1,3-thiazolidine-4-yl)-N-(3-chlorobenzyl)-carboxamide hydrochloride] | 230 to 231 °C | 60.1% |  |
| CCCN1C(=NC23CC4CC(CC(C4)C2)C3)SCC1CC(=O)Nc1ccc(C(C)C)cc1.Cl (stereo not shown) [KHG24807, [2-(1-adamantylimino)-3-n-propyl-1,3-thiazolidine-4-yl]-N-(4-isopropylphenyl)-acetamide hydrochloride] | 155 °C | 59.7% |  |
| CN1C(=NC2CCCCC2)SCC1CC(=O)Nc1cc(Cl)ccc1Cl.Cl (stereo not shown) [KHG24532, (2-cyclohexylimino-3-methyl-1,3-thiazolidine-4-yl)-N-(2,5-dichlorophenyl)-acetamide hydrochloride] | 208 °C | 52.5% |  |
| CC1SC(=NC2CCCC2)N(C)C1CC(=O)Nc1ccc(Cl)cc1.Cl (stereo not shown) [KHG24657, (2-cyclopentylimino-3,5-dimethyl-1,3-thiazolidine-4-yl)-N-(4-chlorophenyl)-acetamide hydrochloride] | 201 to 203 °C | 48% |  |
| CC(C)c1ccc(NC(=O)CC2C(C)SC(=NC3CCCCC3)N2C)cc1.Cl (stereo not shown) [KHG24526, (2-cyclohexylimino-3,5-dimethyl-1,3-thiazolidine-4-yl)-N-(4-isopropylphenyl)-acetamide hydrochloride] | 265 to 267 °C | 42.3% |  |
| CN1C(=NC2CCCCC2)SCC1CC(=O)Nc1ccc(F)cc1F.Cl (stereo not shown) [KHG24081, (2-cyclohexylimino-3-methyl-1,3-thiazolidine-4-yl)-N-(2,4-difluorophenyl)-acetamide hydrochloride] | 206 to 208 °C | 38.3% |  |
| CN1C(=NCCc2ccccc2)SCC1CC(=O)Nc1cc(C(F)(F)F)cc(C(F)(F)F)c1.Cl (stereo not shown) [KHG24216, (2-phenethylimino-3-methyl-1,3-thiazolidine-4-yl)-N-(3,5-ditrifluoromethylphenyl)-acetamide hydrochloride] | 221.3 °C | 36% |  |
| CN1C(=NC2CCCCC2)SCC1CC(=O)Nc1ccc(Cl)c(Cl)c1.Cl (stereo not shown) [KHG24531, (2-cyclohexylimino-3-methyl-1,3-thiazolidine-4-yl)-N-(3,4-dichlorophenyl)-acetamide hydrochloride] | 223 °C | 48.4% |  |
| Cc1ccc(NC(=O)CC2CSC(=NC34CC5CC(CC(C5)C3)C4)N2C(C)C)cc1.Cl (stereo not shown) [KHG24831, [2-(1-adamantylimino)-3-isopropyl-1,3-thiazolidine-4-yl]-N-(4-methylphenyl)-acetamide hydrochloride] | 220 °C | 57% |  |

| SMILES | melting point | inhibition at 10 µM [1, 2] | inhibition at 10 µM [1, 3] |
| --- | --- | --- | --- |
| CC1SC(=NC2CCCCCC2)N(C)C1CC(=O)Nc1ccc(Br)cc1 (stereo not shown) [KHG24486, (2-cycloheptylimino-3,5-dimethyl-1,3-thiazolidine-4-yl)-N-(4-bromophenyl)-acetamide] | 253 to 254 °C | 55.8% |  |
| Cl.O=C(CC1CSC(=NC2CCCCC2)N1C1CC1)Nc1cc(Cl)ccc1F (stereo not shown) [KHG24271, [2-cyclohexylimino-3-cyclopropyl-1,3-thiazolidine-4-yl]-N-(5-chloro-2-fluorophenyl)-acetamide hydrochloride] | 183.7 °C | 37.8% |  |
| Cc1ccc(NC(=O)CC2CSC(=NC3CCCCC3)N2C)cc1F.Cl (stereo not shown) [KHG24091, (2-cyclohexylimino-3-methyl-1,3-thiazolidine-4-yl)-N-(3-fluoro-4-methylphenyl)-acetamide hydrochloride] | 210 to 212 °C | 30.3% |  |
| CC1SC(=NC2CCCCCC2)N(C)C1CC(=O)Nc1ccccc1F.Cl (stereo not shown) [KHG24640, (2-cycloheptylimino-3,5-dimethyl-1,3-thiazolidine-4-yl)-N-(2-fluorophenyl)-acetamide hydrochloride] | 197 to 199 °C | 39.6% |  |
| CCCN1C(=NC23CC4CC(CC(C4)C2)C3)SCC1CC(=O)Nc1cc(Cl)ccc1F.Cl (stereo not shown) [KHG24817, [2-(1-adamantylimino)-3-n-propyl-1,3-thiazolidine-4-yl]-N-(5-chloro-2-fluorophenyl)-acetamide hydrochloride] | 130 °C | 60.5% |  |
| CCCCc1ccc(NC(=O)CC2CSC(=NC34CC5CC(CC(C5)C3)C4)N2CCC)cc1.Cl (stereo not shown) [KHG24808, [2-(1-adamantylimino)-3-n-propyl-1,3-thiazolidine-4-yl]-N-(4-n-butylphenyl)-acetamide hydrochloride] | 213 °C | 37.6% |  |
| CCCN1C(=NC23CC4CC(CC(C4)C2)C3)SCC1CC(=O)Nc1ccc(Br)cc1.Cl (stereo not shown) [KHG24812, [2-(1-adamantylimino)-3-n-propyl-1,3-thiazolidine-4-yl]-N-(4-bromophenyl)-acetamide hydrochloride] | 228 °C | 53.8% |  |
| CCc1ccc(NC(=O)CC2C(C)SC(=NC3CCCCC3)N2C)cc1.Cl (stereo not shown) [KHG24523, (2-cyclohexylimino-3,5-dimethyl-1,3-thiazolidine-4-yl)-N-(4-ethylphenyl)-acetamide hydrochloride] | 265 to 266 °C | 46.3% |  |
| CC1SC(=NC2CCCCCC2)N(C)C1CC(=O)Nc1ccc(C(F)(F)F)cc1.Cl (stereo not shown) [KHG24520, (2-cycloheptylimino-3,5-dimethyl-1,3-thiazolidine-4-yl)-N-(4-trifluoromethylphenyl)-acetamide hydrochloride] | 261 to 263 °C | 64.8% |  |
| CN1C(=NC2CCCCC2)SCC1CC(=O)Nc1cccc(F)c1.Cl (stereo not shown) [KHG24109, (2-cyclohexylimino-3-methyl-1,3-thiazolidine-4-yl)-N-(3-fluorophenyl)-acetamide hydrochloride] | 238 to 239.5 °C | 48.4% |  |
| CN1C(=NC2CCCC2)SCC1CC(=O)Nc1ccc(Cl)cc1F.Cl (stereo not shown) [KHG24105, (2-cyclopentylimino-3-methyl-1,3-thiazolidine-4-yl)-N-(4-chloro-2-fluorophenyl)-acetamide hydrochloride] | 228 to 230.5 °C | 40.4% |  |
| CCCN1C(=NC2CCCCC2)SCC1CC(=O)NCc1ccc(C)cc1.Cl (stereo not shown) [KHG24293, [2-cyclohexylimino-3-(n-propyl)-1,3-thiazolidine-4-yl]-N-(4-methylbenzyl)-acetamide hydrochloride] | 189.5 to 191.2 °C | 55.8% |  |
| CN1C(=NC2CCCC2)SCC1CC(=O)Nc1ccc(Cl)cc1.Cl (stereo not shown) [KHG24106, (2-cyclopentylimino-3-methyl-1,3-thiazolidine-4-yl)-N-(4-chlorophenyl)-acetamide hydrochloride] | 215 to 216 °C | 49.4% |  |
| CN1C(=Nc2ccc(Cl)cc2)SCC1CC(=O)Nc1ccc(Cl)cc1.Cl (stereo not shown) [KHG21652, [2-(4-chlorophenylimino)-3-methyl-1,3-thiazolidine-4-yl]-N-(4-chlorophenyl)-acetamide hydrochloride] | 239 to 242 °C |  | -7.7% |
| CN1C(=NCCc2ccccc2)SCC1CC(=O)Nc1ccc(Oc2ccccc2)cc1.Cl (stereo not shown) [KHG24224, (2-phenethylimino-3-methyl-1,3-thiazolidine-4-yl)-N-(4-phenoxyphenyl)-acetamide hydrochloride] | 225.5 °C | 32% |  |
| CC1SC(=NC2CCCCCC2)N(C)C1CC(=O)Nc1ccc(F)cc1.Cl (stereo not shown) [KHG24518, (2-cycloheptylimino-3,5-dimethyl-1,3-thiazolidine-4-yl)-N-(4-fluorophenyl)-acetamide hydrochloride] | 229 to 231 °C | 50.7% |  |
